Patent US8952024B2, “Herbicidal pyrimidone derivatives” (E I du Pont de Nemours and Company, priority 2009, dated 2015)

Key:
Type in all cases: in vivo
[1] = system: ducksalad (Heteranthera limosa); experiment: Test B flooded paddy test; details: for Plant response rating, Flood, Ducksalad: 250 g ai/ha, flooded paddy test, visual rating on 0 to 100 scale (0 no effect, 100 complete control) after 13 to 15 days; for Plant response rating, Ducksalad: Flood (flooded paddy test), 13 to 15 days; for Ducksalad plant response rating: Flood, 31 g ai/ha, scale 0 to 100 (0 no effect, 100 complete control)
Description: (§1) Plant species in the flooded paddy test consisted of rice (Oryza sativa), umbrella sedge (Cyperus difformis), ducksalad (Heteranthera limosa) and barnyardgrass (Echinochloa crus-galli) grown to the 2-leaf stage for testing. At the time of treatment, test pots were flooded with water to 3 cm above the soil surface, treated by application of test compounds directly to the paddy water, and then maintained at that water depth for the duration of the test.
(§2) Treated plants and controls were maintained in a greenhouse for 13 to 15 days, after which time all treated plants were visually evaluated and compared to controls. Plant response ratings, summarized in Table B, are based on a scale of 0 to 100 where 0 is no effect and 100 is complete control. A dash (-) response means no test result.

[2] = system: umbrella sedge (Cyperus difformis); experiment: Test B flooded paddy test; details: for Plant response rating, Flood, Sedge, Umbrella: 250 g ai/ha, flooded paddy test, visual rating on 0 to 100 scale (0 no effect, 100 complete control) after 13 to 15 days; for Plant response rating, Sedge, Umbrella: Flood (flooded paddy test), 13 to 15 days; for Sedge, Umbrella plant response rating: Flood, 31 g ai/ha, scale 0 to 100 (0 no effect, 100 complete control)
Description: as §1, §2

[3] = system: rice (Oryza sativa); experiment: Test B flooded paddy test; details: for Plant response rating, Flood, Rice: 250 g ai/ha, flooded paddy test, visual rating on 0 to 100 scale (0 no effect, 100 complete control) after 13 to 15 days; for Plant response rating, Rice: Flood (flooded paddy test), 13 to 15 days; for Rice plant response rating: Flood, 31 g ai/ha, scale 0 to 100 (0 no effect, 100 complete control)
Description: as §1, §2

[4] = system: barnyardgrass (Echinochloa crus-galli); experiment: Test B flooded paddy test; details: for Plant response rating, Flood, Barnyardgrass: 250 g ai/ha, flooded paddy test, visual rating on 0 to 100 scale (0 no effect, 100 complete control) after 13 to 15 days; for Plant response rating, Barnyardgrass: Flood (flooded paddy test), 13 to 15 days; for Barnyardgrass plant response rating: Flood, 31 g ai/ha, scale 0 to 100 (0 no effect, 100 complete control)
Description: as §1, §2

[5] = system: velvetleaf (Abutilon theophrasti); experiment: Test A pre-/postemergence plant response
Description: (§3) Seeds of barnyardgrass (Echinochloa crus-galli), large crabgrass (Digitaria sanguinalis), giant foxtail (Setaria faberii), morningglory (Ipomoea spp.), pigweed (Amaranthus retroflexus), velvetleaf (Abutilon theophrasti), wheat (Triticum aestivum) and corn (Zea mays) were planted into a blend of loam soil and sand and treated preemergence with a directed soil spray using test chemicals formulated in a non-phytotoxic solvent mixture which included a surfactant. At the same time these species were also treated with postemergence applications of test compounds formulated in the same manner.
(§4) Plants ranged in height from two to ten cm and were in the one- to two-leaf stage for the postemergence treatment. Treated plants and untreated controls were maintained in a greenhouse for approximately ten days, after which time all treated plants were compared to untreated controls and visually evaluated for injury. Plant response ratings, summarized in Table A, are based on a 0 to 100 scale where 0 is no effect and 100 is complete control. A dash (-) response means no test result.

[6] = system: pigweed (Amaranthus retroflexus); experiment: Test A pre-/postemergence plant response
Description: as §3, §4

[7] = system: corn (Zea mays); experiment: Test A pre-/postemergence plant response
Description: as §3, §4

[8] = system: large crabgrass (Digitaria sanguinalis); experiment: Test A pre-/postemergence plant response
Description: as §3, §4

[9] = system: giant foxtail (Setaria faberii); experiment: Test A pre-/postemergence plant response
Description: as §3, §4

[10] = system: wheat (Triticum aestivum); experiment: Test A pre-/postemergence plant response
Description: as §3, §4

[11] = system: barnyardgrass (Echinochloa crus-galli); experiment: Test A pre-/postemergence plant response
Description: as §3, §4

[12] = system: morningglory (Ipomoea spp.); experiment: Test A pre-/postemergence plant response
Description: as §3, §4

[13] = 62 g ai/ha, scale of 0 to 100 where 0 is no effect and 100 is complete control
[14] = 125 g ai/ha, scale 0 to 100, 0 is no effect, 100 is complete control
[15] = Postemergence, 125 g ai/ha, 0 to 100 scale where 0 is no effect and 100 is complete control
[16] = Postemergence, 500 g ai/ha, 0 to 100 scale, 0 = no effect, 100 = complete control, approx. ten days
[17] = Preemergence, 125 g ai/ha, 0 to 100 scale, 0 = no effect, 100 = complete control
[18] = Preemergence, 500 g ai/ha, visual injury, 0 to 100 scale (0 no effect, 100 complete control), approx. ten days
[19] = Postemergence, 500 g ai/ha, visual injury, 0 to 100 scale (0 no effect, 100 complete control), approx. ten days
[20] = Preemergence, 500 g ai/ha, 0 to 100 scale, 0 = no effect, 100 = complete control

## CCCc1ncc(C(=O)C2=C(O)CCCC2=O)c(=O)n1Cc1cccc(OC(F)(F)F)c1 [Compound 105]
[1]
  Plant response rating, Flood, Ducksalad: 0
  Ducksalad plant response rating: 0
[1]; [13]
  Plant response rating, Ducksalad: 0
[1]; [14]
  Plant response rating, Ducksalad: 0
[2]
  Plant response rating, Flood, Sedge, Umbrella: 0
  Sedge, Umbrella plant response rating: 0
[2]; [13]
  Plant response rating, Sedge, Umbrella: 0
[2]; [14]
  Plant response rating, Sedge, Umbrella: 0
[3]
  Plant response rating, Flood, Rice: 0
  Rice plant response rating: 0
[3]; [13]
  Plant response rating, Rice: 0
[3]; [14]
  Plant response rating, Rice: 0
[4]
  Plant response rating, Flood, Barnyardgrass: 0
  Barnyardgrass plant response rating: 0
[4]; [13]
  Plant response rating, Barnyardgrass: 0
[4]; [14]
  Plant response rating, Barnyardgrass: 0
[5]; [15]
  Plant response rating, Velvetleaf: 100
[5]; [16]
  Plant response rating, Velvetleaf: 100
[5]; [17]
  Plant response rating, Velvetleaf: 0
[5]; [18]
  Plant response rating, Velvetleaf: 70
[6]; [15]
  Plant response rating, Pigweed: 90
[6]; [16]
  Plant response rating, Pigweed: 100
[6]; [17]
  Plant response rating, Pigweed: 80
[6]; [18]
  Plant response rating, Pigweed: 90
[7]; [15]
  Plant response rating, Corn: 0
[7]; [16]
  Plant response rating, Corn: 10
[7]; [17]
  Plant response rating, Corn: 0
[7]; [18]
  Plant response rating, Corn: 0
[8]; [15]
  Plant response rating, Crabgrass, Large: 20
[8]; [16]
  Plant response rating, Crabgrass, Large: 70
[8]; [17]
  Plant response rating, Crabgrass, Large: 30
[8]; [18]
  Plant response rating, Crabgrass, Large: 50
[9]; [15]
  Plant response rating, Foxtail, Giant: 0
[9]; [16]
  Plant response rating, Foxtail, Giant: 20
[9]; [17]
  Plant response rating, Foxtail, Giant: 30
[9]; [18]
  Plant response rating, Foxtail, Giant: 50
[10]; [15]
  Plant response rating, Wheat: 0
[10]; [16]
  Plant response rating, Wheat: 0
[10]; [17]
  Plant response rating, Wheat: 0
[10]; [18]
  Plant response rating, Wheat: 0
[11]; [15]
  Plant response rating, Barnyardgrass: 20
[11]; [16]
  Plant response rating, Barnyardgrass: 50
[11]; [17]
  Plant response rating, Barnyardgrass: 0
[11]; [18]
  Plant response rating, Barnyardgrass: 0
[12]; [15]
  Plant response rating, Morningglory: 10
[12]; [16]
  Plant response rating, Morningglory: 80
[12]; [17]
  Plant response rating, Morningglory: 0

## O=C1CCCC(O)=C1C(=O)c1cnc(-c2cccc(F)c2)n(CCC(F)(F)F)c1=O [Compound 208]
[1]
  Plant response rating, Flood, Ducksalad: 75
  Ducksalad plant response rating: 0
[1]; [13]
  Plant response rating, Ducksalad: 30
[1]; [14]
  Plant response rating, Ducksalad: 40
[2]
  Plant response rating, Flood, Sedge, Umbrella: 70
  Sedge, Umbrella plant response rating: 0
[2]; [13]
  Plant response rating, Sedge, Umbrella: 40
[2]; [14]
  Plant response rating, Sedge, Umbrella: 40
[3]
  Plant response rating, Flood, Rice: 0
  Rice plant response rating: 0
[3]; [13]
  Plant response rating, Rice: 0
[3]; [14]
  Plant response rating, Rice: 0
[4]
  Plant response rating, Flood, Barnyardgrass: 25
  Barnyardgrass plant response rating: 0
[4]; [13]
  Plant response rating, Barnyardgrass: 0
[4]; [14]
  Plant response rating, Barnyardgrass: 15
[5]; [15]
  Plant response rating, Velvetleaf: 100
[5]; [19]
  Velvetleaf plant response rating: 100
[5]; [17]
  Plant response rating, Velvetleaf: 60
[5]; [20]
  Plant response rating, Velvetleaf: 90
[6]; [15]
  Plant response rating, Pigweed: 80
[6]; [19]
  Pigweed plant response rating: 90
[6]; [17]
  Plant response rating, Pigweed: 60
[6]; [20]
  Plant response rating, Pigweed: 100
[7]; [15]
  Plant response rating, Corn: 0
[7]; [19]
  Corn plant response rating: 20
[7]; [17]
  Plant response rating, Corn: 0
[7]; [20]
  Plant response rating, Corn: 20
[8]; [15]
  Plant response rating, Crabgrass, Large: 30
[8]; [19]
  Crabgrass, Large plant response rating: 80
[8]; [17]
  Plant response rating, Crabgrass, Large: 80
[8]; [20]
  Plant response rating, Crabgrass, Large: 100
[9]; [15]
  Plant response rating, Foxtail, Giant: 30
[9]; [19]
  Foxtail, Giant plant response rating: 80
[9]; [17]
  Plant response rating, Foxtail, Giant: 40
[9]; [20]
  Plant response rating, Foxtail, Giant: 70
[10]; [15]
  Plant response rating, Wheat: 0
[10]; [19]
  Wheat plant response rating: 10
[10]; [17]
  Plant response rating, Wheat: 0
[10]; [20]
  Plant response rating, Wheat: 20
[11]; [15]
  Plant response rating, Barnyardgrass: 30
[11]; [19]
  Barnyardgrass plant response rating: 90
[11]; [17]
  Plant response rating, Barnyardgrass: 10
[11]; [20]
  Plant response rating, Barnyardgrass: 80
[12]; [15]
  Plant response rating, Morningglory: 50
[12]; [19]
  Morningglory plant response rating: 100
[12]; [17]
  Plant response rating, Morningglory: 0
[12]; [20]
  Plant response rating, Morningglory: 70

## CCCn1c(-c2ccco2)ncc(C(=O)C2=C(O)CCCC2=O)c1=O [Compound 110]
[1]
  Plant response rating, Flood, Ducksalad: 75
  Ducksalad plant response rating: 0
[1]; [13]
  Plant response rating, Ducksalad: 40
[1]; [14]
  Plant response rating, Ducksalad: 75
[2]
  Plant response rating, Flood, Sedge, Umbrella: 75
  Sedge, Umbrella plant response rating: 30
[2]; [13]
  Plant response rating, Sedge, Umbrella: 35
[2]; [14]
  Plant response rating, Sedge, Umbrella: 50
[3]
  Plant response rating, Flood, Rice: 30
  Rice plant response rating: 0
[3]; [13]
  Plant response rating, Rice: 0
[3]; [14]
  Plant response rating, Rice: 30
[4]
  Plant response rating, Flood, Barnyardgrass: 40
  Barnyardgrass plant response rating: 0
[4]; [13]
  Plant response rating, Barnyardgrass: 0
[4]; [14]
  Plant response rating, Barnyardgrass: 20
[5]; [15]
  Plant response rating, Velvetleaf: 90
[5]; [16]
  Plant response rating, Velvetleaf: 100
[5]; [17]
  Plant response rating, Velvetleaf: 60
[5]; [18]
  Plant response rating, Velvetleaf: 70
[6]; [15]
  Plant response rating, Pigweed: 90
[6]; [16]
  Plant response rating, Pigweed: 100
[6]; [17]
  Plant response rating, Pigweed: 80
[6]; [18]
  Plant response rating, Pigweed: 90
[7]; [15]
  Plant response rating, Corn: 0
[7]; [16]
  Plant response rating, Corn: 10
[7]; [17]
  Plant response rating, Corn: 0
[7]; [18]
  Plant response rating, Corn: 0
[8]; [15]
  Plant response rating, Crabgrass, Large: 80
[8]; [16]
  Plant response rating, Crabgrass, Large: 90
[8]; [17]
  Plant response rating, Crabgrass, Large: 40
[8]; [18]
  Plant response rating, Crabgrass, Large: 80
[9]; [15]
  Plant response rating, Foxtail, Giant: 10
[9]; [16]
  Plant response rating, Foxtail, Giant: 50
[9]; [17]
  Plant response rating, Foxtail, Giant: 0
[9]; [18]
  Plant response rating, Foxtail, Giant: 10
[10]; [15]
  Plant response rating, Wheat: 0
[10]; [16]
  Plant response rating, Wheat: 0
[10]; [17]
  Plant response rating, Wheat: 0
[10]; [18]
  Plant response rating, Wheat: 0
[11]; [15]
  Plant response rating, Barnyardgrass: 60
[11]; [16]
  Plant response rating, Barnyardgrass: 90
[11]; [17]
  Plant response rating, Barnyardgrass: 20
[11]; [18]
  Plant response rating, Barnyardgrass: 60
[12]; [15]
  Plant response rating, Morningglory: 90
[12]; [16]
  Plant response rating, Morningglory: 100
[12]; [17]
  Plant response rating, Morningglory: 40
[12]; [18]
  Plant response rating, Morningglory: 70
